Drawing on PubChem BioAssay AID328 (DTP/NCI, 2004), this text covers T/C for 16 compounds.

Values joined by “and” are separate entries in the source; they are usually repeats but may differ in a detail not shown here. Equal entries are not always repeated. Toxic doses and inconclusive results are not listed.

The assay deals with BDF1 mice, P388 leukemia ip, median survival T/C. Briefly: NCI In Vivo Anticancer Drug Screen. Data for tumor model P388 Leukemia (intraperitoneal) in B6D2F1 (BDF1) mice. The note with it: endpoint: median survival time, higher = longer survival. The procedure, abridged: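 Survival ratio, drug arm over vehicle arm, in mice with a transplanted tumour.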
The mark [1] stands for this setting: dose: 12.5 mg/kg/injection, schedule: Q01DX009 (ip), vehicle: saline.
Setting [2] is: dose: 12.5 mg/kg/injection, schedule: Q04DX003 (ip), vehicle: saline.
[3] abbreviates: dose: 25.0 mg/kg/injection, schedule: Q01DX009 (ip), vehicle: saline.
Where [4] appears, read: dose: 25.0 mg/kg/injection, schedule: Q04DX003 (ip), vehicle: saline.
[5] abbreviates: dose: 50.0 mg/kg/injection, schedule: Q04DX003 (ip), vehicle: saline.
Where [6] appears, read: dose: 25.0 mg/kg/injection, schedule: Q01DX009 (ip), vehicle: saline with Tween-80.
The mark [7] stands for this setting: dose: 50.0 mg/kg/injection, schedule: Q01DX009 (ip), vehicle: saline with Tween-80.
Setting [8] is: dose: 100.0 mg/kg/injection, schedule: Q01DX009 (ip), vehicle: saline with Tween-80.
The mark [9] stands for this setting: dose: 200.0 mg/kg/injection, schedule: Q01DX009 (ip), vehicle: saline with Tween-80.
Where [10] appears, read: dose: 150.0 mg/kg/injection, schedule: Q04DX003 (ip), vehicle: saline with Tween-80.
Setting [11] is: dose: 100.0 mg/kg/injection, schedule: Q04DX003 (ip), vehicle: saline with Tween-80.
Where [12] appears, read: dose: 6.25 mg/kg/injection, schedule: Q01DX009 (ip), vehicle: water.
Where [13] appears, read: dose: 12.5 mg/kg/injection, schedule: Q01DX009 (ip), vehicle: water.

`CC1(C)OC(C)(C)c2c1nnc(-c1ccccc1)[n+]2[O-]`: the T/C is, setting by setting: (dose: 50.0 mg/kg/injection, schedule: Q01DX005 (ip), vehicle: saline with Tween-80) 91 % of control; (dose: 100.0 mg/kg/injection, schedule: Q01DX005 (ip), vehicle: saline with Tween-80) 98 % of control; (dose: 200.0 mg/kg/injection, schedule: Q01DX005 (ip), vehicle: saline with Tween-80) 88 % of control.
On to `CC(=O)OC12C3CCCC1CCCC2CCC3` (stereo not drawn), for which the T/C is, setting by setting: (dose: 100.0 mg/kg/injection, schedule: Q01DX001 (ip), vehicle: Klucel (hydroxypropylcellulose) (HPC)) 100 % of control; (dose: 200.0 mg/kg/injection, schedule: Q01DX001 (ip), vehicle: Klucel (hydroxypropylcellulose) (HPC)) 100 % of control; (dose: 400.0 mg/kg/injection, schedule: Q01DX001 (ip), vehicle: Klucel (hydroxypropylcellulose) (HPC)) 100 % of control.
With `CC(CNCCN)C[Si](C)(C)C` (stereo not drawn), the T/C is, setting by setting: under setting [1], 95 % of control; under setting [2], 88 % of control; under setting [3], 100 % of control; under setting [4], 100 % of control; (dose: 50.0 mg/kg/injection, schedule: Q01DX009 (ip), vehicle: saline) 90 % of control; under setting [5], 94 % of control.
In the case of `O=c1c2ccccc2cc2ccccn12`, the T/C reads like this: (dose: 100.0 mg/kg/injection, schedule: Q01DX009 (ip), vehicle: Klucel (hydroxypropylcellulose) (HPC)) 109 % of control; (dose: 100.0 mg/kg/injection, schedule: Q04DX003 (ip), vehicle: Klucel (hydroxypropylcellulose) (HPC)) 91 % of control; (dose: 200.0 mg/kg/injection, schedule: Q01DX009 (ip), vehicle: Klucel (hydroxypropylcellulose) (HPC)) 109 % of control; (dose: 200.0 mg/kg/injection, schedule: Q04DX003 (ip), vehicle: Klucel (hydroxypropylcellulose) (HPC)) 95 % of control.
As to `OC1(CSc2ccccc2)C=CCCC1` (stereo not drawn), the T/C under setting [6] was 97 % of control and 111 % of control; the T/C under setting [7] is 98 % of control and 112 % of control and 113 % of control; the T/C under setting [8] is 109 % of control and 112 % of control and 121 % of control; the T/C under setting [9] was 111 % of control and 119 % of control and 120 % of control.
Regarding `O=C(O)c1cc(C(=O)O)cc(S(=O)(=O)F)c1`, the T/C was 104 % of control (dose: 75.0 mg/kg/injection, schedule: Q04DX003 (ip), vehicle: saline with Tween-80); 105 % of control under setting [8]; 108 % of control under setting [10]; 95 % of control under setting [9]; 104 % of control (dose: 300.0 mg/kg/injection, schedule: Q04DX003 (ip), vehicle: saline with Tween-80).
As for `CC(=O)/C(=C\c1ccc(Cl)c(Cl)c1)C(=O)c1ccccc1`, the T/C runs as follows: (dose: 100.0 mg/kg/injection, schedule: Q04DX003 (ip), vehicle: other) 113 % of control; (dose: 200.0 mg/kg/injection, schedule: Q04DX003 (ip), vehicle: other) 113 % of control.
For the compound `CCCCCC(=O)c1ccc(OCCCN2CCN(C(=O)OCC)CC2)cc1`, the T/C under setting [8] was 105 % of control and the T/C under setting [9] is 104 % of control.
With `CN(CCCOS(C)(=O)=O)CCCOS(C)(=O)=O`, the T/C runs as follows: (dose: 2.2 mg/kg/injection, schedule: Q04DX003 (ip), vehicle: saline) 104 % of control; (dose: 3.4 mg/kg/injection, schedule: Q04DX003 (ip), vehicle: saline) 113 % of control; (dose: 5.0 mg/kg/injection, schedule: Q01DX010 (ip), vehicle: saline) 150 % of control; (dose: 10.0 mg/kg/injection, schedule: Q01DX010 (ip), vehicle: saline) 196 % of control; (dose: 19.0 mg/kg/injection, schedule: Q04DX003 (ip), vehicle: saline) 172 % of control; under setting [6], 263 % of control. Also, the T/C is, setting by setting: (dose: 29.0 mg/kg/injection, schedule: Q04DX003 (ip), vehicle: saline with Tween-80) 209 % of control; (dose: 40.0 mg/kg/injection, schedule: Q01DX010 (ip), vehicle: saline) 230 % of control; (dose: 66.0 mg/kg/injection, schedule: Q04DX003 (ip), vehicle: saline with Tween-80) 300 % of control; (dose: 80.0 mg/kg/injection, schedule: Q01DX010 (ip), vehicle: saline) 107 % of control; under setting [11], 300 % of control; (dose: 100.0 mg/kg/injection, schedule: Q04DX003 (ip), vehicle: saline) 118 % of control. The T/C runs as follows: under setting [10], 100 % of control; (dose: 150.0 mg/kg/injection, schedule: Q04DX003 (ip), vehicle: saline) 254 % of control.
For `O=C(O)c1ccccc1C(=O)Nc1ccccc1C(F)(F)F`, the T/C runs as follows: under setting [7], 94 % of control; under setting [8], 89 % of control; under setting [9], 121 % of control.
Take `CN1C(C)(C)CC(O)(C(O)(c2ccccc2)c2ccccc2)CC1(C)C`: the T/C was 109 % of control (dose: 12.5 mg/kg/injection, schedule: Q04DX003 (ip), vehicle: Klucel (hydroxypropylcellulose) (HPC)); 109 % of control (dose: 25.0 mg/kg/injection, schedule: Q04DX003 (ip), vehicle: Klucel (hydroxypropylcellulose) (HPC)); 113 % of control (dose: 50.0 mg/kg/injection, schedule: Q04DX003 (ip), vehicle: Klucel (hydroxypropylcellulose) (HPC)).
Turning to `C#CCOCC(O)CO` (stereo not drawn), the T/C runs as follows: under setting [12], 88 % of control; under setting [13], 106 % of control; (dose: 12.5 mg/kg/injection, schedule: Q04DX003 (ip), vehicle: water) 93 % of control; (dose: 25.0 mg/kg/injection, schedule: Q01DX009 (ip), vehicle: water) 117 % of control; (dose: 25.0 mg/kg/injection, schedule: Q04DX003 (ip), vehicle: water) 111 % of control; (dose: 50.0 mg/kg/injection, schedule: Q01DX009 (ip), vehicle: water) 117 % of control and 123 % of control. In addition, the T/C runs as follows: (dose: 50.0 mg/kg/injection, schedule: Q04DX003 (ip), vehicle: water) 95 % of control; (dose: 100.0 mg/kg/injection, schedule: Q01DX009 (ip), vehicle: water) 95 % of control and 122 % of control; (dose: 100.0 mg/kg/injection, schedule: Q04DX003 (ip), vehicle: water) 98 % of control; (dose: 200.0 mg/kg/injection, schedule: Q01DX009 (ip), vehicle: water) 110 % of control.
Regarding `OCCN(CCO)c1cc(/C=C/c2cccc3ccccc23)nc2ccccc12`, the T/C runs as follows: (dose: 50.0 mg/kg/injection, schedule: Q01DX009 (ip), vehicle: saline + alcohol) 100 % of control; (dose: 100.0 mg/kg/injection, schedule: Q01DX009 (ip), vehicle: saline + alcohol) 100 % of control; (dose: 200.0 mg/kg/injection, schedule: Q01DX009 (ip), vehicle: saline + alcohol) 103 % of control.
For `CCCCCCCCCCCCCCCC(=O)OCCCCCCCCCCCCC`, the T/C is 100 % of control (dose: 25.0 mg/kg/injection, schedule: Q04DX003 (ip), vehicle: saline with Tween-80); 100 % of control (dose: 50.0 mg/kg/injection, schedule: Q04DX003 (ip), vehicle: saline with Tween-80); 105 % of control under setting [11].
Turning to `Cc1nc2ccc(O)cc2cc1CBr`, the T/C reads like this: (dose: 6.25 mg/kg/injection, schedule: Q01DX009 (ip), vehicle: saline) 94 % of control and 105 % of control and 106 % of control; (dose: 6.25 mg/kg/injection, schedule: Q04DX003 (ip), vehicle: saline) 98 % of control; under setting [1], 101 % of control and 113 % of control and 118 % of control; under setting [2], 107 % of control; under setting [3], 112 % of control and 119 % of control; under setting [4], 107 % of control. Further, the T/C is 103 % of control (dose: 40.0 mg/kg/injection, schedule: Q01DX009 (ip), vehicle: saline) and 107 % of control under setting [5].
Consider `COc1cccc2c1C(=O)c1c(O)c3c(c(O)c1C2=O)C[C@@](O)(/C(C)=N/NC(=O)c1ccc(-c2ccccc2)cc1)C[C@@H]3OC1CC(N)C(O)C(C)O1` (stereo partly drawn), for which the T/C is 107 % of control (dose: 0.78 mg/kg/injection, schedule: Q01DX009 (ip), vehicle: water); 122 % of control (dose: 1.56 mg/kg/injection, schedule: Q01DX009 (ip), vehicle: water); 224 % of control (dose: 3.12 mg/kg/injection, schedule: Q01DX009 (ip), vehicle: water); 157 % of control under setting [12]; 169 % of control under setting [13].
